pIC50: −log10 of the molar value.
What was measured:
5-HT2 receptor = target: T1, 5-HT2 receptor (Rattus norvegicus, UniProt P14842); test: Affinity for 5-HT2 receptor (binding with 3H-ketanserine); details: rat cerebral cortex crude synapse membrane, 37° C. 20 min
T1 construct: A crude synapse membrane was prepared from a freeze-dried rat cerebral cortex; from tissue; host or cells: rat cerebral cortex (crude synaptic membrane)
Procedure: Affinity for 5-HT2 Receptor (Binding with ^3H-ketanserine)
Preparation of a crude synapse membrane and a binding test were performed according to the method of Leysen J. E. et al. [Molecular Pharmacology, Vol. 21, p. 301 (1982)]. A crude synapse membrane was prepared from a freeze-dried rat cerebral cortex, and the membrane specimen and ^3H-ketanserine were incubated in the presence of a test compound at 37° C. for 20 min. After the completion of the reaction, the reaction mixture was immediately filtered by suction on a Whatmann GF/B filter (trademark), and the radioactivity on the filter was measured on a liquid scintillation counter. The amount of non-specific binding was measured in the presence of 10 μM mianserin. The 50% inhibition concentration (IC50) of the test compound was calculated by the nonlinear regression. In the same manner as above, a comparative test was performed using sarpogrelate as a control compound.

[1] = tested on: platelet rich plasma (PRP); test: Platelet aggregation suppressive action (collagen + 5-HT, platelet rich plasma); type: cell-based, Japanese white rabbit; details: Oryctolagus cuniculus, rabbit PRP, collagen + 3 μM 5-HT
Procedure: Platelet Aggregation Suppressive Action
Preparation of platelet rich plasma and a platelet aggregation test were performed according to the method of Born, G. V. R. et al. [Journal of Physiology, Vol. 168, p. 178 (1963)] as in the following. Blood was drawn from the carotid of male Japanese white rabbit with local anesthesia with xylocaine, using a syringe previously added with 3.8% sodium citrate in a 1/10 amount of the blood. This blood was centrifuged at 1000 round/min for 10 min at room temperature to give a platelet rich plasma (PRP) supernatant. This supernatant was further centrifuged at 3000 round/min for 10 min to give a platelet poor plasma (PPP) supernatant. Taking the measurement values of PRP and PPP as 0% aggregation and 100% aggregation, respectively, the platelet aggregation rate (%) was calculated. A test compound (3 μl) was added to 300 μl of PRP and the mixture was incubated at 37° C. for 5 min. Thereto were added, as aggregation inducing substances, collagen at a concentration prohibitive on aggregation by its single administration, and the final concentration of 3 μM of 5-HT, and the aggregation reaction was recorded for 7 min. The effect of the test compound was determined as percent suppression relative to the control group, using the maximum aggregation as an index. The 50% inhibition concentration (IC50) of the test compound was calculated by the nonlinear regression. In the same manner as above, a comparative experiment was conducted for the use of sarpogrelate and cilostazol, respectively as a control compound.

[2] = tested on: rat intermittent claudication model; test: Effect on rat intermittent claudication model (femoral artery ligation, treadmill walking distance); type: in vivo; details: for walking distance 8 days after administration (Δm): change vs value before ligation, mean±SE
Text: Effect on Rat Intermittent Claudication Model
Rat was anesthetized and the right thigh was opened to expose femoral artery, which was ligated with a silk thread at a position nearest possible to the heart (upstream). In addition, a position about 1 cm from the ligation site to the periphery was ligated with a silk thread, making two ligature sites. Starting from the next day of preparation of a model to day 8 therefrom, a drug was orally administered twice a day for 8 days. However, the drug was orally administered only in the evening of the first day of administration and only in the morning of the final administration day. The walking distance was measured one day before model preparation (initial value), day 1, day 5 and day 8 with a treadmill apparatus. Using a gait test table without an angle of inclination, the conveyor advance speed was first set to 15 m/min, and the speed was increased every 5 min by 5 m/min until the animal failed walking three times, based on which the walking distance of the rat was measured. In the same manner as above, a comparative experiment was performed using sarpogrelate and cilostazol, respectively as a control compound.
In the Table, the values are mean±standard error (n=8 but n=6 only for sarpogrelate group).

[3] = tested on: lauric acid-induced peripheral arterial obstruction model; test: Lauric acid-induced peripheral arterial obstruction model (preventive effect); type: in vivo, Wistar rats; details: for Lesion score 1 day later / Lesion score 3 days later / Lesion score 5 days later / Lesion score 7 days later: first dose 1 h before lauric acid, score 0 normal to 6
Procedure: Effect on Lauric Acid-induced Peripheral Arterial Obstruction Model (Preventive Effect) Under anesthesia, lauric acid (0.75 mg/0.15 mL) was injected into the right femoral artery of Wistar rats (6-8 weeks of age). A drug was administered 1 hour before the lauric acid injection. The drug was orally administered twice a day for 8 days. In the same manner as above, a comparative experiment was performed using cilostazol as a control compound. In the Table, the values are mean±standard error (n=12).

[4] = tested on: lauric acid-induced peripheral arterial obstruction model; test: Rat lauric acid-induced peripheral arterial obstruction model (therapeutic effect); type: in vivo, Wistar rats; details: for Lesion score 1 day later / Lesion score 3 days later / Lesion score 5 days later / Lesion score 7 days later: score 0 normal to 6
Procedure: Effect on Rat Lauric Acid-induced Peripheral Arterial Obstruction Model (Therapeutic Effect) Under anesthesia, lauric acid (0.75 mg/0.15 mL) was injected into the right femoral artery of Wistar rats (6-8 weeks of age). A drug was administered one day after the lauric acid injection. The drug was orally administered twice a day for 7 days. In the same manner as above, a comparative experiment was performed using sarpogrelate and cilostazol as a control compound. In the Table, the values are mean±standard error (n=11).

erythrocytes = test: Improvement effect of erythrocyte deformation (Nuclepore membrane filter method); type: in vivo, SHRSP (stroke prone spontaneously hypertensive rat); details: SHRSP; for Volume of erythrocytes passed: 5 μm filter
Procedure: Improvement Effect of Erythrocyte Deformation
Blood was drawn under anesthesia from SHRSP (stroke prone spontaneously hypertensive rat) loaded with 1% saline for 3 weeks, and the time necessary for 0.5 mL of blood to pass through a filter (pore size 5 μm, Nuclepore) was measured by the Nuclepore membrane filter method of Reid et al., based on which the volume (mL/min) of the erythrocytes passed was calculated. The volume of the erythrocytes passed was taken as an index of erythrocyte deformation. A drug was orally administered 1 hour before drawing the blood. In the same manner as above, a comparative experiment was performed using sarpogrelate as a control compound.
(§1) In the Table, the values are mean±standard error (n=6).

[5] = tested on: collateral circulation model; test: Promotion of collateral circulation (femoral artery ligation, ADP-added platelet suspension, leg blood flow); type: in vivo, rat; details: 10 mg/kg oral
Procedure: Promotion of Collateral Circulation
A collateral circulation model was prepared by rat femoral artery ligation, and a test drug was orally administered 7 days later. At 1 hour from the test drug administration, ADP-added platelet suspension (200 μM) was administered under anesthesia into the femoral artery (1 mL/kg), and changes in the leg blood flow were measured. In the same manner as above, a comparative experiment was performed using cilostazol as a control compound.
as §1

[6] = Effect on heart rate and blood pressure; type: in vivo, Wistar rat; details: for Change of blood pressure / Change of heart rate: 1 hour, no anesthesia or restriction
Procedure: Effect on Heart Rate and Blood Pressure
A catheter was placed in the femoral artery of Wistar rat, and the blood pressure and heart rate were invasively monitored under no anesthesia or restriction. At 1 hour from the oral administration of the test drug, blood pressure and heart rate were taken. In the same manner as above, a comparative experiment was performed using cilostazol as a control compound.
In the Table, the values are mean±standard error (n=4).

[7] = 10 mg/kg oral twice a day from one day after lauric acid
[8] = 30 mg/kg oral twice a day from one day after lauric acid
[9] = 1 hour, after ADP-added platelet suspension

T1 sequence (P14842 whole entry): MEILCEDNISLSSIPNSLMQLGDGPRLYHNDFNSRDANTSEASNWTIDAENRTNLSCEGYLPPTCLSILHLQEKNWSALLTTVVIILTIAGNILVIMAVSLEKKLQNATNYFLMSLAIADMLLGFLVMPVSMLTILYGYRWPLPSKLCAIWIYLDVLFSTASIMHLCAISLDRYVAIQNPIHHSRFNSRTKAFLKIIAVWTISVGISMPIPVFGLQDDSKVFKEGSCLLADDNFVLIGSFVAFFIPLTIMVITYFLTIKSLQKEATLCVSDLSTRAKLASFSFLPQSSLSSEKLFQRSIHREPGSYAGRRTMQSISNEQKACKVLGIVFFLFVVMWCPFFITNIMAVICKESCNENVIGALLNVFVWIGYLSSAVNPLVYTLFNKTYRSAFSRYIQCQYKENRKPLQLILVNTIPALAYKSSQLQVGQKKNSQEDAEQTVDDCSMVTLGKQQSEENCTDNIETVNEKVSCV

With `O=C(N[C@H]1CCN(CCc2ccc(F)cc2)C1)C12CC3CC(CC(C3)C1)C2` [Example 2, (S)-N-(1-(2-(4-fluorophenyl)ethyl)pyrrolidin-3-yl)-1-adamantanecarboxamide] as the compound, how does the pIC50 (5-HT2 receptor) read?
The pIC50 was 9.74.

What about the pIC50 [1] of the same compound?
Its pIC50 is 8.72.

And the “walking distance 8 days after administration (Δm)” value (“walking distance 8 days … (Δm)” below) ([2]; 3 mg/kg oral twice a day)?
The value was −94.3 ± 36.1 m.

And the “walking distance at day 8 of ligation (in words)” value ([2]; 3 mg/kg, 10 mg/kg and 30 mg/kg, b.i.d.)?
The value was “significantly increased”.

What about the “walking distance 8 days … (Δm)” value ([2]; 10 mg/kg oral twice a day) of the same compound?
The value was −89.9 ± 22.2 m.

And the “walking distance 8 days … (Δm)” value ([2]; 30 mg/kg oral twice a day)?
Its value is −88.6 ± 25.0 m.

And the “peripheral circulatory disturbance (in words)” value ([3]; 10 mg/kg and 30 mg/kg, prior to the lauric acid injection)?
The value was “significantly reduced the peripheral circulatory disturbance”.

And the “Lesion score 1 day later” value ([3]; 10 mg/kg oral twice a day)?
The value was 1.8 ± 0.1.

What about the “Lesion score 3 days later” value ([3]; 10 mg/kg oral twice a day) of the same compound?
Its value is 2.1 ± 0.2.

And the “Lesion score 5 days later” value ([3]; 10 mg/kg oral twice a day)?
Its value is 1.8 ± 0.3.

What about the “Lesion score 7 days later” value ([3]; 10 mg/kg oral twice a day) of the same compound?
The value was 1.9 ± 0.5.

What about the “Lesion score 1 day later” value ([3]; 30 mg/kg oral twice a day) of the same compound?
The value was 1.8 ± 0.2.

And the “Lesion score 3 days later” value ([3]; 30 mg/kg oral twice a day)?
The value was 2.0 ± 0.3.

And the “Lesion score 5 days later” value ([3]; 30 mg/kg oral twice a day)?
The value was 1.5 ± 0.4.

And the “Lesion score 7 days later” value ([3]; 30 mg/kg oral twice a day)?
Its value is 1.2 ± 0.5.

And the “Lesion score 1 day later” value [4, 7]?
Its value is 2.0 ± 0.0.

And the “Lesion score 3 days later” value [4, 7]?
The value was 2.2 ± 0.1.

And the “Lesion score 5 days later” value [4, 7]?
Its value is 2.2 ± 0.4.

What about the “Lesion score 7 days later” value [4, 7] of the same compound?
The value was 2.2 ± 0.4.

What about the “Lesion score 1 day later” value [4, 8] of the same compound?
The value was 1.8 ± 0.1.

And the “Lesion score 3 days later” value [4, 8]?
The value was 1.7 ± 0.2.

What about the “Lesion score 5 days later” value [4, 8] of the same compound?
The value was 1.3 ± 0.3.

What about the “Lesion score 7 days later” value [4, 8] of the same compound?
Its value is 0.9 ± 0.5.

And the “peripheral circulatory disturbance (in words)” value ([4]; 30 mg/kg, from one day after the lauric acid injection)?
Its value is “significantly reduced the peripheral circulatory disturbance”.

What about the “volume of the erythrocyte passed, % of the vehicle group” value (erythrocytes; 10 mg/kg) of the same compound?
Its value is 133%.

And the “Volume of erythrocytes passed” value (erythrocytes; 10 mg/kg oral 1 hour before drawing blood)?
The value was 1.05 ± 0.13 mL/min.

What about the “volume of the erythrocyte passed, % of the vehicle group” value (erythrocytes; 30 mg/kg) of the same compound?
Its value is 186%.

What about the “Volume of erythrocytes passed” value (erythrocytes; 30 mg/kg oral 1 hour before drawing blood) of the same compound?
Its value is 1.47 ± 0.19 mL/min.

And the “decrease in leg blood flow caused by ADP-added platelet suspension (in words)” value [5]?
The value was “suppressed the decrease in the blood flow in the legs on both sides”.

What about the “Change in blood flow, control side” value [5, 9] of the same compound?
The value was −10.1 ± 1.4 %.

What about the “Change in blood flow, femoral artery ligation side” value [5, 9] of the same compound?
The value was −11.8 ± 1.2 %.

What about the “influence on heart rate or blood pressure (in words)” value ([6]; 30 mg/kg and 100 mg/kg) of the same compound?
Its value is “did not influence the heart rate or blood pressure”.

What about the “Change of blood pressure” value ([6]; 30 mg/kg oral) of the same compound?
The value was 0.0 ± 1.5 mmHg.

What about the “Change of heart rate” value ([6]; 30 mg/kg oral) of the same compound?
The value was −1.3 ± 4.7 beats/min.

And the “Change of blood pressure” value ([6]; 100 mg/kg oral)?
Its value is −2.8 ± 0.8 mmHg.

What about the “Change of heart rate” value ([6]; 100 mg/kg oral) of the same compound?
The value was −4.5 ± 5.2 beats/min.
